ChEMBL document CHEMBL3880394, “Benzazole derivatives and their use as jnk modulators” (2003)

Key:
[1] = Neuroprotective activity against NGF, arabinosine deficiency and anti NGF antibody-mediated cell death in sympathetic neurons from new born rat superior cervical ganglia assessed as survival rate after 24 hrs by MTT assay relative to control; type: functional, Sympathetic neuron
[2] = Antiinflammatory activity in human Jurkat cells assessed as inhibition of PMA/ionomycine-induced IL2 production preincubated for 30 mins followed by PMA/ionomycine induction measured after 24 hrs by ELISA relative to control; type: functional

SMILES	Survival [1]	inhibition (INH) [2]
N#CC(c1ccnc(Cl)n1)c1nc2ccccc2s1 (stereo not given)	<=80%	>30%
N#CC(c1ccnc(OCc2ccccn2)n1)c1nc2ccccc2s1 (stereo not given)		>30%
N#CC(c1ccnc(OCc2ccc(Cl)c(Cl)c2)n1)c1nc2ccccc2s1 (stereo not given)	<=80%	
N#CC(c1ccnc(NCCCn2ccnc2)n1)c1nc2ccccc2s1 (stereo not given)	<=80%	
